Source: patent publication US20220402867A1, “SULFO-SUBSTITUTED BIARYL COMPOUND OR SALT THEREOF, PREPARATION METHOD THEREFOR, AND USE THEREOF” (Shanghai Litedd Co., Ltd., priority 2019, published 2022)
Read-outs that look alike come from different tables or passages of the source.

How the values were obtained:
[1] = Pharmacokinetic (PK) assay in mice; format: in vivo; conditions: CD-1 mice; for AUC(0-t) / Cmax / half-life / Vd / bioavailability: mouse, plasma; for Vd: read-out: Vss; for bioavailability: Po 5 mg/kg vs IV 1 mg/kg; for CL_obs: values marked **
Description: The PK of each compound was determined as follows: 6 CD-1 mice (obtained from Shanghai Lingchang Biotechnology Co., Ltd.) were divided into two groups, 3 mice in each group. One group was administered intravenously at a dose of 1 mg/kg, and the vehicle was 5% DMSO/40% PEG400/55% (20% 3-CD); one group was administered by oral gavage at a dose of 5 mg/kg, and the vehicle was DMSO/1% methylcellulose (1:99). Blood samples were collected from saphenous vein of lower leg in each group at 0, 0.083, 0.25, 0.5, 1, 2, 4, 6, 8 and 24 h after administration. Approximately 40 μL of the blood samples were collected into anticoagulant tubes containing EDTA-K2. Immediately after collection, the tubes were inverted at least 5 times to ensure uniform mixing, and then placed on ice. The blood samples collected at each time point were centrifuged at 4° C., 8000 rpm for 5 minutes to obtain plasma. Another 1.5 mL centrifuge tube was marked with the compound name, animal number, and time point, and the plasma was transferred to this tube. The plasma was stored at −80° C. until analysis.
Compound concentrations in plasma were determined by UPLC-MS/MS method, and the pharmacokinetic parameters were calculated by Phoenix WinNolin 6.4 pharmacokinetic software on the obtained data.

[2] = biological target: T1, RORγt (RORγ-LBD chimeric receptor) (Homo sapiens, UniProt P51449); assay: Luciferase reporter gene assay of RORγt agonistic activity in HEK293T cells; format: cell-based; design: Emax: dose or concentration left out as unconfirmed; conditions: for Emax: HEK-293T
T1 construct: host or cells: HEK293T
T1 sequence (P51449 269-508 limits assumed): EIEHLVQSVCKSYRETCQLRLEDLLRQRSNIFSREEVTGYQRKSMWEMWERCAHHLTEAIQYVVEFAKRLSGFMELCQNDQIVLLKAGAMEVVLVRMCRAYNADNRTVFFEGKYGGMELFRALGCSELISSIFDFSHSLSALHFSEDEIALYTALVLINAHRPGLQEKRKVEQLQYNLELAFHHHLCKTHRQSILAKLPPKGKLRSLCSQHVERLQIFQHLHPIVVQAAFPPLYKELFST
Description: This assay was basically carried out according to the method described in the literature ONCOIMMUNOLOGY, 2016, VOL. 5, NO. 12, e1254854.
The RORγ-LBD coding sequence was inserted into pBIND plasmid (Promega, E1581). This expression vector and a reporter vector (pGL4.35 carrying a stably integrated luciferase reporter gene driven by GAL4 promoter) were co-expressed in HEK293T host cells. When the agonist binds to the corresponding chimeric receptor, the chimeric receptor binds to the GAL4 binding site on the reporter gene carrier and stimulates reporter gene expression. The agonistic activity of the compound on RORγ was determined according to the intensity of the chemiluminescence signal.
1.1 All test compounds were serially diluted at 3-fold dilution with DMSO, with 10 serial dilutions starting from 10 mM; LIT-00093 solution was prepared similarly. […] 1.4 The compound plate was sealed and shaken for 5 min.
Cells were cultured according to ATCC standard operation, and 6*10^6 HEK293T cells were seeded into 100 mm cell culture dishes, cultured overnight in a 37° C., 5% CO2 incubator, and then transfected. Compounds of corresponding concentrations were added for treatment, and the Steady-Glo™ kit (Lot E 2520) was used for further detection.
Chemiluminescence values were detected with Envision 2104; EC50 values were calculated.
% Activity was calculated with the following equation: […]
RLU: […] R L Upositive: average value of positive control R L Uvehicle: average value of negative control
The log values of the compound concentration and % Activity were fitted using Graphad 8.0, to calculate EC50s of the compounds.

[3] = Metabolic stability in human liver microsomes; format: in vitro ADME; conditions: for microsomal CLint: 0.5 mg protein/mL
Description: (§1) According to standard methods of in vitro metabolic stability studies in the art, eg., the methods described in Kerns, Edward H. and Di Li (2008). Drug-like Properties: Concepts, Structure Design and Methods: from ADME to Toxicity Optimization. San Diego: Academic Press; Di, Li et al., Optimization of a Higher Throughput Microsomal Stability Screening Assay for Profiling Drug Discovery Candidates, J. Biomol. Screen. 2003, The method described in 8(4), 453, the liver microsomal metabolic stability test of the compounds of the present disclosure was carried out analogously as follows.
(§2) The incubation system contained 0.5 mg protein/mL microsomes, cofactors, and PBS, was pre-incubated at 37° C. for 3 min, and then added the substrate (i.e., the test compounds) to initiate the reaction. Samples were taken at 0, 1, 5, 10, 15, 20, 30 and 60 min from the start of the reaction, and an appropriate terminator was added to terminate the reaction.
(§3) The terminator was an ice acetonitrile solution containing 100 ng/mL tolbutamide and 100 ng/mL labetalol.
(§4) Sample treatment (n=3): each appropriate sample was added, vortexed and centrifuged at high speed. The supernatants were collected, and the substrate was detected by HPLC-MS/MS. The peak area at the 0 min was taken as 100%. The peak areas at other time points were converted to percentage of the remaining amount. The natural logarithms of the percentage of remaining amount at each time point was plotted against the incubation time, and the slope (−k) was calculated by linear regression. Then, Clint (uL/min/mg) and half-life (T½, min) of the compounds were calculated following the equation of the inherent clearance rate (Clint)=(k* volume of incubation solution)/mass of liver microsomes.

GST-RORγ LBD (263-509) = biological target: T2, GST-RORγ LBD (263-509) (Homo sapiens, UniProt P51449); assay: TR-FRET assay of agonistic activity on RORγ receptor; format: biochemical; conditions: for EC50: TR-FRET, GST-RORγ LBD with Biotin-SRC1; for Emax %: maximum activation rate, TOP of fitted curve
T2 construct: GST-RORγ LBD ((263-509) (produced at ChemPartner))
T2 sequence (P51449 263-509): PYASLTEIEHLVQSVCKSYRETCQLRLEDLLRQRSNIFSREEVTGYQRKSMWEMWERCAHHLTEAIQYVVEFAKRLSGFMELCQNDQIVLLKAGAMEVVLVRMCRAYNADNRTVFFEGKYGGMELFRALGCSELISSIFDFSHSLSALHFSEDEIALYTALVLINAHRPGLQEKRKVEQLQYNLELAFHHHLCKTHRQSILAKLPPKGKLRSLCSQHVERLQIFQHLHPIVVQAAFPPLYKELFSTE
Description: A time-resolved fluorescence resonance energy transfer (TR-FRET) assay was used for the compounds of the present disclosure, to determine the agonistic activity of the compounds on the RORγ protein receptor. The agonistic activity is expressed by the concentration for 50% of maximal effect (EC50). The experiment was performed basically with reference to the methods described in ONCOIMMUNOLOGY, 2016, VOL. 5, NO. 12, e1254854.
1. Preparation of RORγ Basal Buffer
A 100 mL basal buffer was prepared, mixed homogeneously and stored for use;
The compounds of the examples shown in the table below were prepared into solutions with DMSO as the solvent, serially diluted at 3-fold dilution to 10 concentrations starting from 10 mM, and added to the corresponding wells of a 384-well plate with each concentration of each compound in duplicate;
a. A 75 nM solution of GST-RORγ LBD ((263-509) (produced at ChemPartner)) and a 4 nM solution of Biotin-SRC1 (Glsbiochem) were prepared with the above basal buffer. The two solutions were 1:1 mixed evenly, and 10 μL of the mixed solution was added into each well of the above 384-well plate. The plate was immediately centrifugated at 1000 rpm for 10 seconds; b. A 1 nM solution of Anti-GST Eu (Cisbio, #61GSTKLA) and a 50 nM solution of SA-APC (Cisbio, […]) were prepared with the above basal buffer. The two solutions were 1:1 mixed evenly, and 10 μL of the mixed solution was added into each well of the above 384-well plate. The plate was immediately centrifugated at 1000 rpm for 10 seconds; c. The resulting 384-well plate was incubated at room temperature for 15 minutes. Data were read on an Envision microplate reader, EC50 values and E max % were calculated.
a. Readings were taken at 665 nm and 615 nm wavelengths respectively on the Envision Microplate Reader, and the ratios between them were normalized. b. Calculation was carried out with the following equation: […]
wherein X is the reading of compounds, Min is the reading of the blank solution, and Max is the reading of 10 μM SRC. c. The concentration-response curve data were fitted by a four-parameter logistic nonlinear regression model, and Emax was the TOP value of the fitted curve.

[4] = Metabolic stability in mouse liver microsomes; format: in vitro ADME, CD-1 mice
Description: as §1, §2, §3, §4

AUC(0-t) ([1]; IV 1 mg/kg) | Cmax ([1]; IV 1 mg/kg) | half-life ([1]; IV 1 mg/kg) | bioavailability [1] | AUC(0-t) ([1]; Po 5 mg/kg) | Cmax ([1]; Po 5 mg/kg) | half-life ([1]; Po 5 mg/kg) | EC50 (GST-RORγ LBD (263-509)) | Emax % (GST-RORγ LBD (263-509)) | CL_obs ([1]; IV 1 mg/kg) | Vd ([1]; IV 1 mg/kg, values marked *) | Compound | Emax [2] | half-life [3] | microsomal CLint [3] | % Remaining (T = 60 min) [3] | other results
256 ng·h/mL | 353 ng/mL | 158 min | 21% | 269 ng·h/mL | 52.6 ng/mL | 321 min | – | – | – | – | CC(C)(C[C@H]1CN(S(=O)(=O)c2cccc(C(F)(F)F)c2)c2cc(-c3cc(F)cc(OC(F)F)c3)ccc2O1)C(=O)O [LYC-55716, reference compound] | – | – | – | – | Vd ([1]; IV 1 mg/kg): 7.23 L/kg
– | – | – | – | – | – | – | – | – | – | – | CC(C)Cc1ccc(-c2c(Cl)cc(NC(=O)Cc3ccc(S(C)(=O)=O)cc3)cc2Cl)cc1C#N [LIT-00093, reference compound] | 83.9% | 4.7 min | 295 µL/min/mg | 0% | EC50 ([2]; HEK293T, GAL4 luciferase reporter, read-out: EC50): 116 nM
1060 ng·h/mL | 601 ng/mL | 102 min | 116% | 6380 ng·h/mL | 1450 ng/mL | 163 min | 24.6 nM | 174.7% | 15.4** mL/min/kg | 2.02 L/kg | CCS(=O)(=O)c1ccc(C(COC)C(=O)Nc2cc(Cl)c(-c3ccc(S(=O)(=O)C4CC4)cc3)c(Cl)c2)cc1 (single isomer, unassigned) [Example 41, (S)—N-(2,6-dichloro-4′-(cyclopropylsulfonyl)-[1,1′-biphenyl]-4-yl)-2-(4-(ethylsulfonyl)phenyl)-3-methoxypropionamide or (R)—N-(2,6-dichloro-4′-(cyclopropylsulfonyl)-[1,1′-biphenyl]-4-yl)-2-(4-(ethylsulfonyl)phenyl)-3-methoxypropionamide] | – | – | – | – | –
6880 ng·h/mL | 1340 ng/mL | 214 min | 32.8% | 9140 ng·h/mL | 700 ng/mL | 738 min | – | – | 2.40** mL/min/kg | 0.83 L/kg | COC[C@H](C(=O)Nc1cc(Cl)c(-c2ccc(S(=O)(=O)C3CC3)cc2)c(Cl)c1)c1ccc(S(C)(=O)=O)cc1 (single isomer, unassigned) [Example 35, (S)—N-(2,6-dichloro-4′-(cyclopropylsulfonyl)-[1,1′-biphenyl]-4-yl)-3-methoxy-2-(4-(methylsulfonyl)phenyl)propanamide or (R)—N-(2,6-dichloro-4′-(cyclopropylsulfonyl)-[1,1′-biphenyl]-4-yl)-3-methoxy-2-(4-(methylsulfonyl)phenyl)propanamide] | – | – | – | – | –
2170 ng·h/mL | 1320 ng/mL | 132 min | 15.8% | 1440 ng·h/mL | 294 ng/mL | 156 min | 27.4 nM | 197.0% | 7.21** mL/min/kg | 1.27 L/kg | CS(=O)(=O)c1ccc(C(CO)C(=O)Nc2cc(Cl)c(-c3ccc(S(=O)(=O)C4CC4)cc3)c(Cl)c2)cc1 (single isomer, unassigned) [Example 37, (S)—N-(2,6-Dichloro-4′-(cyclopropylsulfonyl)-[1,1′-biphenyl]-4-yl)-2-(4-(methylsulfonyl)phenyl)-3-hydroxypropionamide or (R)—N-(2,6-dichloro-4′-(cyclopropylsulfonyl)-[1,1′-biphenyl]-4-yl)-2-(4-(methylsulfonyl)phenyl)-3-hydroxypropionamide] | – | – | – | – | –
– | – | – | – | – | – | – | – | – | – | – | CS(=O)(=O)c1ccc(-c2c(Cl)cc(NC(=O)Cc3ccc(S(=O)(=O)CCO)cc3)cc2Cl)cc1 [Example 14, N-(2,6-Dichloro-4′-(methylsulfonyl)-[1,1′-biphenyl]-4-yl)-2-(4-(2-hydroxyethylsulfonyl)phenyl)acetamide] | 40.7% | 92.8 min | 14.9 µL/min/mg | 61.7% | EC50 [2]: 225 nM; % Remaining (T = 60 min) ([4]; 60 min): 87.3%; half-life ([4]; CD-1): > 145 min; microsomal CLint ([4]; CD-1, 0.5 mg protein/mL): < 9.6 µL/min/mg
